Test results reported in patent US5545625A, “Preventing conversion of citrulline to argininosuccinate to limit pathological nitric oxide overproduction” (The Medical College of Wisconsin Research Foundation, Inc., priority 1994, dated 1996).

Key:
nitric oxide synthase = experiment: Nitric oxide synthase (NOS) activity of cytosol of rat aortic smooth muscle cells induced with LPS/interferon-gamma in presence of test agent (Example I); assay type: cell-based; conditions: mithramycin 0.001 to 10 μg/ml with LPS 30 μg/ml plus interferon-gamma 50 ng/ml, 24 hours; FIG. 1
Protocol: Aortic smooth muscle cells were cultured by explanting segments of the medial layer of aortae from adult male Fischer 344 rats. Aortae were removed aseptically and freed of adventitial and endothelial cells by scraping both the lumenal and abluminal surfaces. Medial fragments (1-2 mm) were allowed to attach to dry Primaria 25 cm^2 tissue culture flasks (Falcon; Oxnard, Calif.) which were kept moist with growth medium until cells emerged. Cultures were fed twice weekly with medium 199 containing 10% fetal bovine serum, 25 mM HEPES, 2 mM L-glutamine, 40 μg/ml endothelial cell growth supplement (Biomedical Technologies; Stoughton, Mass.) and 10 μg/ml gentamycin (GIBCO; Grand Island, N.Y.). When primary cultures became confluent, they were passaged by trypsinization and the explants were discarded. Cells in passage 10-15 were seeded at 20,000/well in 96-well plates. […]
Nitric oxide formation by smooth muscle cell cytosol was measured using a spectrophotometric kinetic microplate assay based on the increase in A405 accompanying the oxidation of Fe^2+ -myoglobin by nitric oxide. […] Assays were performed in triplicate with A405 recorded for each sample every 18 seconds for a period of 15 minutes. The rate of nitric oxide synthesis was calculated from the rate of increase in A405 by linear regression analysis. […]

[1] = system: argininosuccinate synthetase mRNA; experiment: RT-PCR of argininosuccinate synthetase mRNA in induced rat aortic smooth muscle cells (Example III); assay type: cell-based; conditions: LPS 30 μg/ml plus interferon-gamma 50 ng/ml with mithramycin, 6 hours; FIG. 3
Protocol: Rat aortic smooth muscle cells were grown as described in Example I and were treated with 30 μg/ml bacterial lipopolysaccharide in combination with 50 ng/ml interferon-gamma. […] RNA was extracted by a modified guanidinium isothiocyanate method (RNAzol; Cinna/Biotecz, Houston, Tex.). Reverse transcriptase-polymerase chain reaction was performed by standard methods using 1 μg of total RNA. This was followed by polymerase chain reaction amplification using synthetic gene-specific primers for rat argininosuccinate synthetase as described in Amaya, Y., et al, J. Biochem. (Tokyo) 103, 177-181 (1988), for argininosuccinate lyase as described in Surh, L. C., et al, Nucleic Acids Research, 16, 9352 (1988) and murine-inducible nitric oxide synthase as described in Lyons, C. R., et al, J. Biol. Chem. 267, 6370-6374 (1992). The primers are specifically described in Hattori, Y., et al, J. Biol. Chem. 269, 9405-9408 (1994). Polymerase chain reaction amplification was performed according to the following schedule: denaturation, annealing, and elongation at 95, 55 and 72° C. for 30 sec, 30 sec and 1 min, respectively, for 30 cycles. […] Polymerase chain reaction products were electrophoresed on a 1.5% agarose gel containing ethidium bromide and visualized by UV-induced fluorescence. […]

[2] = system: patient with Gram negative septicemia; experiment: Blood pressure in septicemia patient given N^G -methyl-L-arginine plus test agent (Examples X, XVI); assay type: in vivo, human; conditions: N^G -methyl-L-arginine 20 mg/kg bolus then 10 mg/kg/hr, plus mithramycin 25 μg/kg intravenously over 3-6 hours
Protocol: A patient with Gram negative septicemia and blood pressure of 80/55 mm Hg is administered N^G -methyl-L-arginine in a bolus dose of 20 mg/kg intravenously in saline and thereafter is given a sustained infusion of N^G -methyl-L-arginine at a dosage of 10 mg/kg/hr. Mithramycin (25 μg/kg) is given intravenously in 50 ml saline over 3-6 hours starting at the time of the bolus dose of N^G -methyl-L-arginine. […] The patient is released after 2 days.
A patient with a Gram negative septicemia and blood pressure of 80/55 mm Hg is administered N^G -methyl-L-arginine in a bolus dose of 20 mg/kg intravenously in saline and thereafter is given a sustained infusion of N^G -methyl-L-arginine at a dose of 10 mg/kg/hr. N^ω -Methyl-L-citrulline (40 mg/kg) is given intravenously in 50 ml saline over 3-6 hours starting at the time of the bolus dose of N^G -methyl-L-arginine.

Sprague-Dawley rats = experiment: Air pouch inflammatory model with croton oil (Examples XII, XVIII); assay type: in vivo, rat; conditions: mithramycin 25 μg/kg intraperitoneally, repeated at 24 hour intervals; end of 5 days; versus rats without drug

## COC(C(=O)C(O)C(C)O)C1Cc2cc3cc(OC4CC(OC5CC(O)C(O)C(C)O5)C(O)C(C)O4)c(C)c(O)c3c(O)c2C(=O)C1OC1CC(OC2CC(OC3CC(C)(O)C(O)C(C)O3)C(O)C(C)O2)C(O)C(C)O1 (centres unmarked) [mithramycin]
Nitric oxide synthase
  nitric oxide synthase activity: blocks argininosuccinate synthetase activity as well as nitric oxide synthase activity
[1]
  gene transcription of argininosuccinate synthetase (mRNA level): inhibits gene transcription of argininosuccinate synthetase
[2]
  blood pressure: becomes normotensive within minutes of administration of the bolus dose of N^G -methyl-L-arginine and the normotensive state is sustained
Sprague-Dawley rats
  inflammation: less inflammation
  nitrite in the fluid exudate of the lesion: significantly less nitrite
